According to patent publication US20130071897A1, “METHOD FOR CONTROLLING UNDESIRABLE BYPRODUCTS FORMATION CAUSED BY CONTAMINATING ORGANISMS IN THE PRODUCTION OF ETHANOL FROM SYNGAS” (COSKATA, INC., priority 2011, published 2013):

Tested on: acyl-CoA dehydrogenases
Assay: In vitro acyl-CoA dehydrogenase ferrocenium assay with C. tyrobutyricum cell-free extract
Assay type: biochemical
Conditions: 0.5 to 10 mM compound, rate of ferrocenium reduction at 300 nm
Procedure, shortened: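 Lysozyme-lysed cell-free extract of early-log C. tyrobutyricum was assayed anaerobically at laboratory temperature in 50 mM Tris-HCl pH 7.6 with 0.05 mM butyryl-CoA, FAD and 0.4 mM ferrocenium. Ferrocenium reduction was followed at 300 nm over 10–20 min, and the rate slope was plotted against compound concentration to give a dose-response slope.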

Row | SMILES | Dose-Response Slope | Dose-Response Slope (listed as Ethyl 4,4,4-trifluoro-3-(trifluoromethyl)crotonate)
1 | CCOC(=O)/C=C(\N)C(F)(F)F [B, ethyl-3-amino-4,4,4-trifluorocrotonate] | 25 | –
2 | CCOC(=O)C=C(C(F)(F)F)C(F)(F)F [Compound A, ethyl 4,4,4-trifluoro-3-(trifluoromethyl)crotonate] | about 8 | 8
